Experimental findings from ChEMBL document CHEMBL4321804, “Myrmenaphthol A, Isolated from a Hawaiian Sponge of the Genus Myrmekioderma” (J Nat Prod, 2019) are described below.

Test [1] concerns the target T1, Estrogen receptor (Homo sapiens) (UniProt P03372).
T1 sequence (whole entry): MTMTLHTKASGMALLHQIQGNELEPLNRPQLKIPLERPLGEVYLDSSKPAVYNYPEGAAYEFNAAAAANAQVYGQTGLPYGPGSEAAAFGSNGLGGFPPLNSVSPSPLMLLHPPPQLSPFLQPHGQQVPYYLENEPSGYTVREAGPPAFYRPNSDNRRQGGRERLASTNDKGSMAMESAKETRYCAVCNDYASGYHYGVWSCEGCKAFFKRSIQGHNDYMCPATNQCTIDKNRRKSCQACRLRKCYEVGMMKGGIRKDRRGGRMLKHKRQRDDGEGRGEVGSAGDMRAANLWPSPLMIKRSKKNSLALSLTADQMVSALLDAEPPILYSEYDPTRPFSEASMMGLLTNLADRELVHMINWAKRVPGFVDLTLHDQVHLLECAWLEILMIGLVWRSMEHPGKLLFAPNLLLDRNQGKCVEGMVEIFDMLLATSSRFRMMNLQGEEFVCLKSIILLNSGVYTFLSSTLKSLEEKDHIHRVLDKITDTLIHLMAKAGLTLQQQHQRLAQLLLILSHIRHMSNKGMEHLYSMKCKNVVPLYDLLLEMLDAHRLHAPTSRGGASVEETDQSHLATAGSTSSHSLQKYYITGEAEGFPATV
Briefly: Antagonist activity at 17-beta-estradiol-stimulated GST-tagged ER-alpha ligand binding domain (unknown origin) assessed as fluorescein PGC1a coactivator peptide recruitment incubated up to 24 hrs by LanthaScreen TR-FRET co-regulator assay.

Test [2] deals with T1, Estrogen receptor (Homo sapiens). The test can be described thus: Agonist activity at GST-tagged ER-alpha ligand binding domain (unknown origin) assessed as fluorescein PGC1a coactivator peptide recruitment incubated up to 24 hrs by LanthaScreen TR-FRET co-regulator assay.
Test [3] has the same target. The test can be described thus: Inhibition of 17-beta-estradiol-stimulated human ER alpha-binding domain at 100 uM by LanthaScreen TR-FRET coregulator assay.
The next test deals with HeLa. The test can be described thus: Cytotoxicity against human HeLa cells incubated for 72 hrs by MTT assay. The test is classed as functional, cell-based.
The test system of a further test is P388. Briefly: Cytotoxicity against mouse P388 cells incubated for 72 hrs by MTT assay. The test is classed as functional, cell-based. The conditions noted are these: P388, 72 h.
The target of a further test is T2, Estrogen receptor (Homo sapiens, UniProt P03372).
T2 sequence (P03372 whole entry): T1 sequence (whole entry)
The test can be described thus: Displacement of [3H]-estradiol from human recombinant estrogen receptor expressed in insect cells incubated for 17 hrs by radioactive receptor binding assay.

Converted amounts (≈) assume the structure as drawn. The source made the active and inactive calls. No cut-off for these calls is given here.

For `C/C=C1/C(=O)C(O)=C2c3ccc4ccc(O)cc4c3CC[C@@]21C`, in test [1], the inhibition entry was “inactive”. Moreover, in test [2], the result was inactive. Further, the inhibition in test [3] came out at 30%.
Regarding `C[C@@H]1C[C@@]12c1ccc3c(ccc4ccc(O)cc43)c1C[C@@H]2O`, the IC50 with HeLa was found to be 0.4 µg/mL (≈ 1.38 µM); in the test on P388 it was 4.5 µg/mL (≈ 15.5 µM); at Estrogen receptor, 10 nM. In test [1], the inhibition result is “inactive”. Besides, the result in test [2] was inactive. This compound yielded an inhibition in test [3] of 30%.
